For data set [1], the system named is Streptococcus pyogenes C203. It counts as cell-based. The following applies: agar dilution; 2, 5, 17, 22 median of three tests; paired values two experiments.
In data set [2] the test system is Staphylococcus aureus ATCC 6738P. The experiment in a line: agar-plate disc-diffusion test. Type of data set: cell-based. As to conditions: suspended in water at 1 mg/ml; 7 mm disc; 24-48 hours at 25-37° C.
In data set [3] the test system is Micrococcus luteus ATCC 9341. The experiment in a line: agar-plate disc-diffusion test. It counts as cell-based. As to conditions: suspended in water at 1 mg/ml; 7 mm disc; 24-48 hours at 25-37° C.
Data set [4] concerns Staphylococcus epidermidis EPI1. Type of data set: cell-based. The following applies: agar dilution; 2, 5, 17, 22 median of three tests; paired values two experiments.
In data set [5] the test system is Bacillus subtilis ATCC 6633. The data set can be described thus: agar-plate disc-diffusion test. As to conditions: 7 mm disc, 24-48 hours at 25-37° C.; for Size of Zone of Inhibition (mm) B. subtilis ATCC 6633, grown on minimal nutrient agar: 1 mg/ml; for Size of Zone of Inhibition (mm) Bacillus subtilis ATCC 6633: suspended in water at 1 mg/ml.
Description: ^a Compounds were suspended in water at a concentration of 1 mg/ml; a
7 mm disc was dipped into the suspension and then placed on the agar
surface; incubation: 24-48 hours at 25-37° C.
^b Grown on minimal nutrient agar
Data set [6] deals with Staphylococcus aureus X400. It counts as cell-based. As to conditions: methicillin-resistant strain; agar dilution; 2, 5, 17, 22 median of three tests; paired values two experiments.
In data set [7] the test system is Streptococcus pneumoniae Park I. Type of data set: cell-based. The following applies: agar dilution; 2, 5, 17, 22 median of three tests; paired values two experiments.
The test system of data set [8] is Streptococcus pyogenes. The experiment in a line: in vivo activity against experimental bacterial infection (ED50). The following applies: mice, dose protecting fifty percent of test animals; for ED50 Streptococcus pyogenes Oral: two doses orally; for ED50 Streptococcus pyogenes Subcutaneous: two doses subcutaneously.
A short description of data set [9]: toxicity test (LD50). The following applies: mouse, in vivo, iv, mice; administered intravenously.
In data set [10] the test system is Staphylococcus aureus X1.1. It counts as cell-based. The following applies: agar dilution; 2, 5, 17, 22 median of three tests; paired values two experiments.
Data set [11] relates to Staphylococcus aureus V41. Type of data set: cell-based. As to conditions: penicillin-resistant strain; agar dilution; 2, 5, 17, 22 median of three tests; paired values two experiments.
Data set [12] deals with Staphylococcus epidermidis EPI2. Type of data set: cell-based. The following applies: agar dilution; 2, 5, 17, 22 median of three tests; paired values two experiments.
Data set [13] has as its system Streptococcus Group 9960. It counts as cell-based, Streptococcus pneumoniae. As to conditions: agar dilution; 2, 5, 17, 22 median of three tests; paired values two experiments.
Data set [14] relates to Streptococcus pneumoniae Group D X66. It counts as cell-based. The following applies: agar dilution; 2, 5, 17, 22 median of three tests; paired values two experiments.
The subject of data set [15] is Staphylococcus aureus. The data set can be described thus: in vivo activity against experimental bacterial infection (ED50). The following applies: mice; two doses subcutaneously; dose protecting fifty percent of test animals.

Molecules are shown by their SMILES. Values after ≈ are worked out from the molar mass of the structure shown.

Regarding `CCCCCCCCCCC(=O)N[C@@H](Cc1c[nH]c2ccccc12)C(=O)N[C@@H](CC(N)=O)C(=O)N[C@@H](CC(=O)O)C(=O)N[C@@H]1C(=O)NCC(=O)N[C@@H](CCCN)C(=O)N[C@@H](CC(=O)O)C(=O)N[C@H](C)C(=O)N[C@@H](CC(=O)O)C(=O)NCC(=O)N[C@H](CO)C(=O)N[C@@H]([C@H](C)CC(=O)O)C(=O)N[C@@H](CC(=O)c2ccccc2N)C(=O)O[C@@H]1C` [Compound 5], in data set [1], the “MIC Streptococcus pyogenes C203” value came out at 0.125 µg/mL (≈ 0.0765 µM). In addition, the “Size of Zone of Inhibition (mm) Staphylococcus aureus ATCC 6738P” value in data set [2] stood at 19 mm. In data set [3], the “Size of Zone of Inhibition (mm) Micrococcus luteus ATCC 9341” value came to 21 mm. In addition, the “MIC Staphylococcus epidermidis EPI1” value in [4] stood at 0.5 µg/mL (≈ 0.306 µM). Further, in data set [5], the “Size of Zone of Inhibition (mm) B. subtilis ATCC 6633, grown on minimal nutrient agar” value is on record as 21 mm and the “Size of Zone of Inhibition (mm) Bacillus subtilis ATCC 6633” value is given as 19 mm. In addition, in data set [6], the “MIC Staphylococcus aureus X400” value was found to be 0.5 µg/mL (≈ 0.306 µM). Moreover, the “MIC Streptococcus pneumoniae Park I” value in [7] was 0.25 µg/mL (≈ 0.153 µM). In data set [8], the “ED50 Streptococcus pyogenes Oral” value worked out at 138 mg/kg × 2 and the “ED50 Streptococcus pyogenes Subcutaneous” value is 0.13 mg/kg × 2. The same molecule gave an LD50 in data set [9] greater than 600 mg/kg. In [10], the “MIC Staphylococcus aureus X1.1” value turned out to be 0.25 µg/mL (≈ 0.153 µM). For the same molecule, the “MIC Staphylococcus aureus V41” value in [11] worked out at 0.25 µg/mL (≈ 0.153 µM). Besides, the “MIC Staphylococcus epidermidis EPI2” value in data set [12] turned out to be 0.5 µg/mL (≈ 0.306 µM). Also, the “MIC Streptococcus pneumoniae Group 9960” value in [13] is 0.5 µg/mL (≈ 0.306 µM). Moreover, the “MIC Streptococcus pneumoniae Group D X66” value in data set [14] was found to be 2 µg/mL (≈ 1.22 µM). Further, the “ED50 Staphylococcus aureus Subcutaneous” value in data set [15] is given as 0.37 mg/kg × 2.
In the case of `CCCCCCCCCCCCCCCC(=O)N[C@@H](Cc1c[nH]c2ccccc12)C(=O)N[C@@H](CC(N)=O)C(=O)N[C@@H](CC(=O)O)C(=O)N[C@@H]1C(=O)NCC(=O)N[C@@H](CCCN)C(=O)N[C@@H](CC(=O)O)C(=O)N[C@H](C)C(=O)N[C@@H](CC(=O)O)C(=O)NCC(=O)N[C@H](CO)C(=O)N[C@@H]([C@H](C)CC(=O)O)C(=O)N[C@@H](CC(=O)c2ccccc2N)C(=O)O[C@@H]1C` [Compound 10], the “MIC Streptococcus pyogenes C203” value in data set [1] came to 1 µg/mL (≈ 0.587 µM). Also, in data set [2], the “Size of Zone of Inhibition (mm) Staphylococcus aureus ATCC 6738P” value worked out at 19 mm. For the same molecule, the “Size of Zone of Inhibition (mm) Micrococcus luteus ATCC 9341” value in [3] is 17 mm. For the same molecule, in data set [4], the “MIC Staphylococcus epidermidis EPI1” value came out at 2 µg/mL (≈ 1.17 µM). Also, in data set [5], the “Size of Zone of Inhibition (mm) B. subtilis ATCC 6633, grown on minimal nutrient agar” value turned out to be 23 mm and the “Size of Zone of Inhibition (mm) Bacillus subtilis ATCC 6633” value was 17 mm. The “MIC Staphylococcus aureus X400” value in [6] was determined as 2 µg/mL (≈ 1.17 µM). For the same molecule, in [7], the “MIC Streptococcus pneumoniae Park I” value worked out at 0.06 µg/mL (≈ 0.0352 µM). Further, in data set [8], the “ED50 Streptococcus pyogenes Oral” value was greater than 200 mg/kg × 2 and the “ED50 Streptococcus pyogenes Subcutaneous” value worked out at 0.18 mg/kg × 2. Also, the 50% lethal dose (LD50) in data set [9] is 50 mg/kg. The “MIC Staphylococcus aureus X1.1” value in data set [10] was 1 µg/mL (≈ 0.587 µM). In addition, in data set [11], the “MIC Staphylococcus aureus V41” value amounted to 1 µg/mL (≈ 0.587 µM). Further, the “MIC Staphylococcus epidermidis EPI2” value in [12] is 2 µg/mL (≈ 1.17 µM). The “MIC Streptococcus pneumoniae Group 9960” value in data set [13] was determined as 0.25 µg/mL (≈ 0.147 µM). In [14], the “MIC Streptococcus pneumoniae Group D X66” value worked out at 2 µg/mL (≈ 1.17 µM). Besides, the “ED50 Staphylococcus aureus Subcutaneous” value in data set [15] is reported as greater than 1.1 mg/kg × 2.

These data come from patent US4537717A.
